Source: ChEMBL document CHEMBL2057203, “Synthesis and evaluation of novel F-18 labeled 4-aminoquinazoline derivatives: potential PET imaging agents for tumor detection” (Bioorg Med Chem Lett, 2012)

What was measured:
Stomach [1] = assay: Biodistribution in S180 tumor-bearing mouse stomach at 8 to 10 uCi, iv after 5 mins by gamma counting; assay type: ADME, organism-based; conditions: in vivo
Nucleic Acid [2] = assay: Ratio of drug level in tumor to blood in S180 tumor-bearing mouse at 8 to 10 uCi, iv at 30 mins by gamma counting; assay type: ADME, organism-based; conditions: tumour, 0.5 h
Brain [3] = assay: Biodistribution in S180 tumor-bearing mouse brain at 8 to 10 uCi, iv after 30 mins by gamma counting; assay type: ADME, organism-based; conditions: in vivo, 0.5 h
Stomach [4] = assay: Biodistribution in S180 tumor-bearing mouse stomach at 8 to 10 uCi, iv after 30 mins by gamma counting; assay type: ADME, organism-based; conditions: in vivo, 0.5 h
Nucleic Acid [5] = assay: Ratio of drug level in tumor to muscle in S180 tumor-bearing mouse at 8 to 10 uCi, iv at 30 mins by gamma counting; assay type: ADME, organism-based; conditions: in vivo, 0.5 h
Muscle tissue [6] = assay: Biodistribution in S180 tumor-bearing mouse muscle at 8 to 10 uCi, iv after 60 mins by gamma counting; assay type: ADME, organism-based; conditions: in vivo, 1 h
Nucleic Acid [7] = assay: Ratio of drug level in tumor to blood in S180 tumor-bearing mouse at 8 to 10 uCi, iv at 5 mins by gamma counting; assay type: ADME, organism-based; conditions: tumour
Brain [8] = assay: Biodistribution in S180 tumor-bearing mouse brain at 8 to 10 uCi, iv after 120 mins by gamma counting; assay type: ADME, organism-based; conditions: in vivo, 2 h
Muscle tissue [9] = assay: Biodistribution in S180 tumor-bearing mouse muscle at 8 to 10 uCi, iv after 120 mins by gamma counting; assay type: ADME, organism-based; conditions: in vivo, 2 h
Liver [10] = assay: Biodistribution in S180 tumor-bearing mouse liver at 8 to 10 uCi, iv after 30 mins by gamma counting; assay type: ADME, organism-based; conditions: in vivo, 0.5 h
Kidney [11] = assay: Biodistribution in S180 tumor-bearing mouse kidneys at 8 to 10 uCi, iv after 5 mins by gamma counting; assay type: ADME, organism-based; conditions: in vivo
Mus musculus [12] = assay: Biodistribution in S180 cells xenografted in mouse tumor at 8 to 10 uCi, iv after 120 mins by gamma counting; assay type: ADME, organism-based, Neoplasm, CCRF S-180; conditions: in vivo, 2 h
Kidney [13] = assay: Biodistribution in S180 tumor-bearing mouse kidney at 8 to 10 uCi, iv after 30 mins by gamma counting; assay type: ADME, organism-based; conditions: in vivo, 0.5 h
Lung [14] = assay: Biodistribution in S180 tumor-bearing mouse lung at 8 to 10 uCi, iv after 30 mins by gamma counting; assay type: ADME, organism-based; conditions: in vivo, 0.5 h
Nucleic Acid [15] = assay: Ratio of drug level in tumor to muscle in S180 tumor-bearing mouse at 8 to 10 uCi, iv at 60 mins by gamma counting; assay type: ADME, organism-based; conditions: in vivo, 1 h
Lung [16] = assay: Biodistribution in S180 tumor-bearing mouse lung at 8 to 10 uCi, iv after 120 mins by gamma counting; assay type: ADME, organism-based; conditions: in vivo, 2 h
Liver [17] = assay: Biodistribution in S180 tumor-bearing mouse liver at 8 to 10 uCi, iv after 60 mins by gamma counting; assay type: ADME, organism-based; conditions: in vivo, 1 h
[18] = Chemical stability in PBS after 2 hrs by radio-HPLC analysis at room temperature; assay type: physicochemical; conditions: buffer
Mus musculus [19] = assay: Biodistribution in S180 cells xenografted in mouse tumor at 8 to 10 uCi, iv after 30 mins by gamma counting; assay type: ADME, organism-based, Neoplasm, CCRF S-180; conditions: in vivo, 0.5 h
Blood [20] = assay: Biodistribution in S180 tumor-bearing mouse blood at 8 to 10 uCi, iv after 5 mins by gamma counting; assay type: ADME, organism-based; conditions: in vivo
Brain [21] = assay: Biodistribution in S180 tumor-bearing mouse brain at 8 to 10 uCi, iv after 60 mins by gamma counting; assay type: ADME, organism-based; conditions: in vivo, 1 h
Nucleic Acid [22] = assay: Ratio of drug level in tumor to muscle in S180 tumor-bearing mouse at 8 to 10 uCi, iv at 5 mins by gamma counting; assay type: ADME, organism-based; conditions: in vivo
Nucleic Acid [23] = assay: Ratio of drug level in tumor to muscle in S180 tumor-bearing mouse at 8 to 10 uCi, iv at 120 mins by gamma counting; assay type: ADME, organism-based; conditions: in vivo, 2 h
Heart [24] = assay: Biodistribution in S180 tumor-bearing mouse heart at 8 to 10 uCi, iv after 120 mins by gamma counting; assay type: ADME, organism-based; conditions: in vivo, 2 h
Stomach [25] = assay: Biodistribution in S180 tumor-bearing mouse stomach at 8 to 10 uCi, iv after 60 mins by gamma counting; assay type: ADME, organism-based; conditions: in vivo, 1 h
Heart [26] = assay: Biodistribution in S180 tumor-bearing mouse heart at 8 to 10 uCi, iv after 5 mins by gamma counting; assay type: ADME, organism-based; conditions: in vivo
Lung [27] = assay: Biodistribution in S180 tumor-bearing mouse lungs at 8 to 10 uCi, iv after 5 mins by gamma counting; assay type: ADME, organism-based; conditions: in vivo
Heart [28] = assay: Biodistribution in S180 tumor-bearing mouse heart at 8 to 10 uCi, iv after 30 mins by gamma counting; assay type: ADME, organism-based; conditions: in vivo, 0.5 h
Nucleic Acid [29] = assay: Ratio of drug level in tumor to brain in S180 tumor-bearing mouse at 8 to 10 uCi, iv at 120 mins by gamma counting; assay type: ADME, organism-based; conditions: in vivo, 2 h
Nucleic Acid [30] = assay: Ratio of drug level in tumor to blood in S180 tumor-bearing mouse at 8 to 10 uCi, iv at 120 mins by gamma counting; assay type: ADME, organism-based; conditions: tumour, 2 h
Nucleic Acid [31] = assay: Ratio of drug level in tumor to blood in S180 tumor-bearing mouse at 8 to 10 uCi, iv at 60 mins by gamma counting; assay type: ADME, organism-based; conditions: tumour, 1 h
Kidney [32] = assay: Biodistribution in S180 tumor-bearing mouse kidney at 8 to 10 uCi, iv after 120 mins by gamma counting; assay type: ADME, organism-based; conditions: in vivo, 2 h
Stomach [33] = assay: Biodistribution in S180 tumor-bearing mouse stomach at 8 to 10 uCi, iv after 120 mins by gamma counting; assay type: ADME, organism-based; conditions: in vivo, 2 h
Mus musculus [34] = assay: Biodistribution in S180 cells xenografted in mouse tumor at 8 to 10 uCi, iv after 60 mins by gamma counting; assay type: ADME, organism-based, Neoplasm, CCRF S-180; conditions: in vivo, 1 h
Muscle tissue [35] = assay: Biodistribution in S180 tumor-bearing mouse muscle at 8 to 10 uCi, iv after 30 mins by gamma counting; assay type: ADME, organism-based; conditions: in vivo, 0.5 h
Blood [36] = assay: Biodistribution in S180 tumor-bearing mouse blood at 8 to 10 uCi, iv after 60 mins by gamma counting; assay type: ADME, organism-based; conditions: in vivo, 1 h
Liver [37] = assay: Biodistribution in S180 tumor-bearing mouse liver at 8 to 10 uCi, iv after 5 mins by gamma counting; assay type: ADME, organism-based; conditions: in vivo
Spleen [38] = assay: Biodistribution in S180 tumor-bearing mouse spleen at 8 to 10 uCi, iv after 5 mins by gamma counting; assay type: ADME, organism-based; conditions: in vivo
Mus musculus [39] = assay: Biodistribution in S180 cells xenografted in mouse tumor at 8 to 10 uCi, iv after 5 mins by gamma counting; assay type: ADME, organism-based, Neoplasm, CCRF S-180; conditions: in vivo
Nucleic Acid [40] = assay: Ratio of drug level in tumor to brain in S180 tumor-bearing mouse at 8 to 10 uCi, iv at 60 mins by gamma counting; assay type: ADME, organism-based; conditions: in vivo, 1 h
Plasma = assay: Metabolic stability in mouse plasma after 2 hrs by radio-HPLC analysis; assay type: ADME, cell-free
Heart [41] = assay: Biodistribution in S180 tumor-bearing mouse heart at 8 to 10 uCi, iv after 60 mins by gamma counting; assay type: ADME, organism-based; conditions: in vivo, 1 h
Muscle tissue [42] = assay: Biodistribution in S180 tumor-bearing mouse muscle at 8 to 10 uCi, iv after 5 mins by gamma counting; assay type: ADME, organism-based; conditions: in vivo
Nucleic Acid [43] = assay: Ratio of drug level in tumor to brain in S180 tumor-bearing mouse at 8 to 10 uCi, iv at 5 mins by gamma counting; assay type: ADME, organism-based; conditions: in vivo
Liver [44] = assay: Biodistribution in S180 tumor-bearing mouse liver at 8 to 10 uCi, iv after 120 mins by gamma counting; assay type: ADME, organism-based; conditions: in vivo, 2 h
Nucleic Acid [45] = assay: Ratio of drug level in tumor to brain in S180 tumor-bearing mouse at 8 to 10 uCi, iv at 30 mins by gamma counting; assay type: ADME, organism-based; conditions: in vivo, 0.5 h
Blood [46] = assay: Biodistribution in S180 tumor-bearing mouse blood at 8 to 10 uCi, iv after 30 mins by gamma counting; assay type: ADME, organism-based; conditions: in vivo, 0.5 h
[47] = Chemical stability in PBS after 2 hrs by radio-HPLC analysis at 60 degC; assay type: physicochemical; conditions: buffer
Spleen [48] = assay: Biodistribution in S180 tumor-bearing mouse spleen at 8 to 10 uCi, iv after 120 mins by gamma counting; assay type: ADME, organism-based; conditions: in vivo, 2 h
Blood [49] = assay: Biodistribution in S180 tumor-bearing mouse blood at 8 to 10 uCi, iv after 120 mins by gamma counting; assay type: ADME, organism-based; conditions: in vivo, 2 h
Lung [50] = assay: Biodistribution in S180 tumor-bearing mouse lung at 8 to 10 uCi, iv after 60 mins by gamma counting; assay type: ADME, organism-based; conditions: in vivo, 1 h
Brain [51] = assay: Biodistribution in S180 tumor-bearing mouse brain at 8 to 10 uCi, iv after 5 mins by gamma counting; assay type: ADME, organism-based; conditions: in vivo
Spleen [52] = assay: Biodistribution in S180 tumor-bearing mouse spleen at 8 to 10 uCi, iv after 30 mins by gamma counting; assay type: ADME, organism-based; conditions: in vivo, 0.5 h
Kidney [53] = assay: Biodistribution in S180 tumor-bearing mouse kidney at 8 to 10 uCi, iv after 60 mins by gamma counting; assay type: ADME, organism-based; conditions: in vivo, 1 h
Blood [54] = assay: Clearance in S180 tumor-bearing mouse blood at 8 to 10 uCi, iv at 120 mins; assay type: ADME, organism-based; conditions: in vivo, 2 h
[55] = n-octanol-PBS partition coefficient, logP of the compound; assay type: physicochemical
Spleen [56] = assay: Biodistribution in S180 tumor-bearing mouse spleen at 8 to 10 uCi, iv after 60 mins by gamma counting; assay type: ADME, organism-based; conditions: in vivo, 1 h

- Drug uptake (Stomach [1]): 8.52 % ID/g
- Ratio (Nucleic Acid [2]): 2.56
- Drug uptake (Brain [3]): 0.39 % ID/g
- Drug uptake (Stomach [4]): 7.03 % ID/g
- Ratio (Nucleic Acid [5]): 1.64
- Drug uptake (Muscle tissue [6]): 0.43 % ID/g
- Ratio (Nucleic Acid [7]): 0.09
- Drug uptake (Brain [8]): 0.09 % ID/g
- Drug uptake (Muscle tissue [9]): 1.31 % ID/g
- Drug uptake (Liver [10]): 7.96 % ID/g
- Drug uptake (Kidney [11]): 10.85 % ID/g
- Drug uptake (Mus musculus [12]): 3.7 % ID/g
- Drug uptake (Kidney [13]): 2.83 % ID/g
- Drug uptake (Lung [14]): 5.12 % ID/g
- Ratio (Nucleic Acid [15]): 7.7
- Drug uptake (Lung [16]): 3.6 % ID/g
- Drug uptake (Liver [17]): 1.87 % ID/g
- Stability [18]: Stable
- Drug uptake (Mus musculus [19]): 4.04 % ID/g
- Drug uptake (Blood [20]): 4.43 % ID/g
- Drug uptake (Brain [21]): 0.19 % ID/g
- Ratio (Nucleic Acid [22]): 0.2
- Ratio (Nucleic Acid [23]): 2.82
- Drug uptake (Heart [24]): 1.87 % ID/g
- Drug uptake (Stomach [25]): 4.05 % ID/g
- Drug uptake (Heart [26]): 4.79 % ID/g
- Drug uptake (Lung [27]): 12.21 % ID/g
- Drug uptake (Heart [28]): 1.12 % ID/g
- Ratio (Nucleic Acid [29]): 41.11
- Ratio (Nucleic Acid [30]): 6.61
- Ratio (Nucleic Acid [31]): 2.98
- Drug uptake (Kidney [32]): 1.07 % ID/g
- Drug uptake (Stomach [33]): 4.1 % ID/g
- Drug uptake (Mus musculus [34]): 3.31 % ID/g
- Drug uptake (Muscle tissue [35]): 2.46 % ID/g
- Drug uptake (Blood [36]): 1.11 % ID/g
- Drug uptake (Liver [37]): 9.67 % ID/g
- Drug uptake (Spleen [38]): 2.84 % ID/g
- Drug uptake (Mus musculus [39]): 0.38 % ID/g
- Ratio (Nucleic Acid [40]): 17.42
- Stability (Plasma): Stable
- Drug uptake (Heart [41]): 0.98 % ID/g
- Drug uptake (Muscle tissue [42]): 1.87 % ID/g
- Ratio (Nucleic Acid [43]): 0.49
- Drug uptake (Liver [44]): 1.78 % ID/g
- Ratio (Nucleic Acid [45]): 10.36
- Drug uptake (Blood [46]): 1.58 % ID/g
- Stability [47]: Stable
- Drug uptake (Spleen [48]): 1.05 % ID/g
- Drug uptake (Blood [49]): 0.56 % ID/g
- Drug uptake (Lung [50]): 5.6 % ID/g
- Drug uptake (Brain [51]): 0.78 % ID/g
- Drug uptake (Spleen [52]): 1.25 % ID/g
- Drug uptake (Kidney [53]): 0.9 % ID/g
- CL (Blood [54]): 88%
- logP [55]: 0.89
- Drug uptake (Spleen [56]): 0.8 % ID/g
SMILES: COc1cc2ncnc(Nc3cccc(Br)c3)c2cc1OCC[18F]
